Patent US6063814A, “Phorbol esters as anti-neoplastic and white blood cell elevating agents” (priority 1997, dated 2000)
Where “and” joins values, the source holds several entries; their conditions need not be identical. Equal values may be shown once. Entries after “also recorded” stand apart in the source; their conditions may differ.

Test system: White Blood Cell (WBC)
Assay: TPA induced white blood cell changes in patients with solid tumors undergoing chemotherapy
Format: in vivo, humans
Description: TPA solution in a sterile syringe was injected into 200 ml of saline and mixed well for i.v. infusion.
Patients undergoing chemotherapy for the treatment of solid tumors.
Subject No. (11), person. Diagnosis: malignant lymphoma. The patient had received adramycin, vincristine, and hormonal treatment. The blood cell counts were decreased to: Hb: 78 g/L, WBC: 0.7×10^9 /L, platelet: 245×10^9 /L. 0.25 mg TPA was administered to the patient 4 times. The blood cell counts improved to: Hb: 76 g/L, WBC: 6.8×10^9 /L, platelet: 331×10^9 /L. Chemotherapy was then continued for 5 more days, and followed by one dose of 0.5 mg TPA. The WBC count was maintained at 3.0×10^9 /L. The patient is still receiving treatment.
Subject No. (12), person. Diagnosis: brain tumor. Blood profile after chemotherapy was: Hb: 119 g/L, WBC: 3.0×10^9 /L, platelet: 399×10^9 /L. 0.25 mg TPA was given to the patient once. On the day after the TPA treatment, the blood profile was Hb: 123 g/L, WBC: 4.5×10^9 /L, platelet: 436×10^9 /L. The patient received further chemotherapy.
Subject No. (13), person. Diagnosis: lung cancer. After chemotherapy, their blood cell counts were decreased to: Hb: 76 g/L, WBC: 0.9×10^9 /L, platelet: 100×10^9 /L. 0.25 mg TPA was given to the patient twice. On the day after the TPA treatment, Hb: 74 g/L, WBC: 2.5×10^9 /L, platelet: 110×10^9 /L. The patient is still receiving treatment.
Subject No. (14), person. Diagnosis: breast cancer. The WBC after chemotherapy was 3.8×10^9 /L. 0.25 mg of TPA was given to the patient once. The WBC on the day after the TPA treatment was 8.0×10^9 /L.
Subject No. (15), person. Diagnosis: Esophageal Cancer. Surgery was performed, followed by chemotherapy using cisplatin, 5-fluorouracil. Blood profile (before TPA): WBC: 2.4×10^9 /L; neutrophil: 83%, lymphocyte: 17%; platelet: 150×10^9 /L; RBC: 3.43×10^12 /L; Hb: 107 g/L. TPA dosage: 0.25 mg. […] The cardiac, hepatic, renal and pulmonary functions were normal.
Subject No. (16), person. Diagnosis: Esophageal Cancer. Surgery was performed, followed by chemotherapy using VP16, MTX, MMC and cisplatin. TPA dose: 0.25 mg. Blood profile (before TPA): WBC: 2.4×10^9 /L; neutrophil: 67%; lymphocyte: 23%; platelet: 101×10^9 /L; RBC: 3.45×10^12 /L; Hb: 114 g/L. Blood profile (one day after TPA): WBC: 5.2×10^9 /L; neutrophil: 87%; lymphocyte: 13%; platelet 60×10^9 /L; RBC: 3.76×10^12 /L; Hb: 122 g/L. Blood profile (2 days after TPA administration).
Subject No. (17), person. Diagnosis: breast cancer. Surgery was performed, followed by chemotherapy using CTX, MTX, and 5-FU. TPA dose: 0.25 mg×2 (Second dose was 4 days after 1st dose). […] The cardiac, hepatic, renal and pulmonary functions were normal.
Subject No. (18), person. Diagnosis: Colon cancer. Surgery was performed, followed by chemotherapy using Cisplatin, VP16, and 5-FU. TPA dose: 0.25 mg×2 (2nd TPA dose was administered 24 hrs after 1st TPA dose). […] Cardiac hepatic, renal and pulmonary functions were normal.
Subject No. (19), person. Diagnosis: lung cancer metastasized to adrenal gland. Surgery was performed, followed by chemotherapy using MMC, VCR, and CTX. TPA dosage: 0.25 mg×2 (2nd TPA dose was administered 24 hrs after 1st TPA dose). […] Cardiac, hepatic renal and pulmonary functions were normal.
Subject No. (20), person. Diagnosis: esophageal cancer metastasized to liver, lung and brain. The patient received chemotherapy using Taxol, cisplatin, 5-FU and Semustial. Total TPA dosage: 2mg. Blood profile (before TPA): WBC: 0.7×10^9 /L; neutrophil: 29%; lymphocyte: 71%; platelet: N/A; RBC: 2.82×10^12 /L; Hb: 87 g/L. TPA treatment schedule. On the first and third day, 0.25 mg was given and on the 5th, 7th and 9th day 0.5 mg of TPA was given. […] Cardiac, hepatic, renal and pulmonary functions were normal.
Subject No. (21), person. Diagnosis: lymphoma metastasized to bone marrow. […]

[1] = 2 days after second TPA dose (0.25 mg×2)
[2] = 2 days after single TPA 0.25 mg
[3] = 4 days after single TPA 0.25 mg
[4] = 7 days after single TPA 0.25 mg
[5] = one day after second TPA dose (0.25 mg×2)
[6] = one day after single TPA 0.25 mg
[7] = solid tumor patients after TPA 0.25 mg doses
[8] = subject 11, malignant lymphoma, after 0.25 mg TPA 4 times
[9] = subject 17, 3 days after first TPA dose 0.25 mg
[10] = subject 17, 4 days after second TPA dose 0.25 mg
[11] = subject 20, 11th day, TPA total 2 mg over 9 days
[12] = subject 20, day 2, TPA total 2 mg over 9 days

**Q.** Which Hb [1] does the source give for CCCCCCCCCCCCCC(=O)O[C@@H]1[C@@H](C)[C@@]2(O)[C@@H](C=C(CO)C[C@]3(O)C(=O)C(C)=C[C@@H]23)[C@@H]2C(C)(C)[C@]12OC(C)=O [TPA, Phorbol 12-Myristate-13-Acetate] here?
**A.** The Hb was 101 g/L.

**Q.** And the WBC [1]?
**A.** Its WBC is 3.8e+09 L⁻¹ and 5e+09 L⁻¹.

**Q.** What about the lymphocyte [1] of the same compound?
**A.** Its lymphocyte is 16% and 20%.

**Q.** What about the neutrophil [1] of the same compound?
**A.** The neutrophil was 84% and 80%.

**Q.** What about the platelet [1] of the same compound?
**A.** The platelet was 8.4e+10 L⁻¹.

**Q.** And the Hb [2]?
**A.** The Hb was 109 g/L and 116 g/L.

**Q.** And the RBC [2]?
**A.** The RBC was 2.99e+12 L⁻¹.

**Q.** And the WBC [2]?
**A.** The WBC was 4.5e+09 L⁻¹ and 5.6e+09 L⁻¹.

**Q.** And the lymphocyte [2]?
**A.** Its lymphocyte is 20% and 19%.

**Q.** And the neutrophil [2]?
**A.** Its neutrophil is 80% and 81%.

**Q.** And the platelet [2]?
**A.** The platelet was 6.4e+10 L⁻¹.

**Q.** And the Hb [3]?
**A.** Its Hb is 112 g/L and 129 g/L.

**Q.** What about the RBC [3] of the same compound?
**A.** Its RBC is 3.36e+12 L⁻¹.

**Q.** What about the WBC [3] of the same compound?
**A.** The WBC was 4.4e+09 L⁻¹ and 3.9e+09 L⁻¹.

**Q.** And the platelet [3]?
**A.** Its platelet is 1.05e+11 L⁻¹.

**Q.** What about the Hb [4] of the same compound?
**A.** The Hb was 118 g/L and 138 g/L.

**Q.** And the neutrophil [4]?
**A.** Its neutrophil is 82% and 48%.

**Q.** What about the “recovery of infection fighting cells” value (after and during chemotherapy) of the same compound?
**A.** The value was “help speed the rapid recovery of the infection fighting cells”.

**Q.** And the Hb [5]?
**A.** Its Hb is 74 g/L and 112 g/L and 93 g/L.

**Q.** And the RBC [5]?
**A.** The RBC was 4.1 ×10^12.

**Q.** What about the neutrophil [5] of the same compound?
**A.** The neutrophil was 60% and 82%.

**Q.** What about the platelet [5] of the same compound?
**A.** Its platelet is 1.1e+11 L⁻¹ and 1.98e+11 L⁻¹.

**Q.** What about the Hb [6] of the same compound?
**A.** The Hb was 123 g/L and 109 g/L and 122 g/L and 116 g/L and 139 g/L and 126 g/L and 120 g/L.

**Q.** And the RBC [6]?
**A.** The RBC was 3.33e+12 L⁻¹ and 3.76e+12 L⁻¹.

**Q.** And the neutrophil [6]?
**A.** The neutrophil was 94% and 87% and 79% and 53% and 60% and 90% and 83%.

**Q.** What about the “time of elevation of white blood cell count” value (patients receiving chemotherapy, often) of the same compound?
**A.** Its value is “within one day”.

**Q.** And the duration of fever [7]?
**A.** Its duration of fever is 4 h.

**Q.** What about the “fever, temperature after TPA” value [7] of the same compound?
**A.** The value was 38 °C and 39.2 °C and 37.8 °C and 39 °C.

**Q.** And the “cardiac, hepatic, renal and pulmonary functions” value (solid tumor patients after TPA, one subject per block)?
**A.** Its value is “normal; also recorded: same as before TPA treatment; also recorded: functioning normally”.

**Q.** What about the “Symptoms after TPA” value (solid tumor patients undergoing chemotherapy, one subject per block) of the same compound?
**A.** The value was “Chill, fever, local irritation and slight headache; also recorded: chills, fever, local irritation; also recorded: Chills at 5th day which lasted about one hour; also recorded: No chills and fever, only local irritation; also recorded: No chills. Low fever; also recorded: Stomach ache and diarrhea (which disappeared soon after)”.

**Q.** And the WBC count maintained (subject 11, after 5 more days chemotherapy and one dose 0.5 mg TPA)?
**A.** The WBC count maintained was 3e+09 L⁻¹.

**Q.** And the Hb [8]?
**A.** Its Hb is 76 g/L.

**Q.** What about the WBC [8] of the same compound?
**A.** Its WBC is 6.8e+09 L⁻¹.

**Q.** And the platelet [8]?
**A.** Its platelet is 3.31e+11 L⁻¹.

**Q.** And the Hb [9]?
**A.** Its Hb is 107 g/L.

**Q.** What about the RBC [9] of the same compound?
**A.** The RBC was 3.36e+12 L⁻¹.

**Q.** What about the WBC [9] of the same compound?
**A.** Its WBC is 2.9e+09 L⁻¹.

**Q.** And the lymphocyte [9]?
**A.** The lymphocyte was 17%.

**Q.** What about the neutrophil [9] of the same compound?
**A.** Its neutrophil is 83%.

**Q.** And the platelet [9]?
**A.** Its platelet is 1.22e+11 L⁻¹.

**Q.** And the Hb [10]?
**A.** Its Hb is 112 g/L.

**Q.** And the RBC [10]?
**A.** Its RBC is 3.49e+12 L⁻¹.

**Q.** And the WBC [10]?
**A.** The WBC was 4.4e+09 L⁻¹.

**Q.** What about the lymphocyte [10] of the same compound?
**A.** Its lymphocyte is 14%.

**Q.** What about the neutrophil [10] of the same compound?
**A.** The neutrophil was 86%.

**Q.** What about the platelet [10] of the same compound?
**A.** Its platelet is 1.93e+11 L⁻¹.

**Q.** And the duration of chills (subject 17, TPA 0.25 mg×2)?
**A.** The duration of chills was 2 h.

**Q.** And the Hb [11]?
**A.** Its Hb is 61 g/L.

**Q.** And the RBC [11]?
**A.** Its RBC is 2.91e+12 L⁻¹.

**Q.** And the WBC [11]?
**A.** The WBC was 2.7e+09 L⁻¹.

**Q.** What about the lymphocyte [11] of the same compound?
**A.** The lymphocyte was 15%.

**Q.** What about the neutrophil [11] of the same compound?
**A.** Its neutrophil is 85%.

**Q.** And the platelet [11]?
**A.** The platelet was 3.76e+10 L⁻¹.

**Q.** And the Hb [12]?
**A.** The Hb was 72 g/L.

**Q.** And the RBC [12]?
**A.** The RBC was 2.17e+12 L⁻¹.

**Q.** And the WBC [12]?
**A.** The WBC was 9e+08 L⁻¹.
